Experimental data as given in patent US5922734A, “6-[triazolyl[3-(trifluoromethyl)phenyl]methyl]-2-quinolines and -quinolinethiones” (Janssen Pharmaceutica, N.V., priority 1994, dated 1999).
Like-named read-outs stand apart in the source and are kept apart here.

What was measured:
[1] = system: estradiol undecylate induced keratinization effects; experiment: Vaginal Keratinization Test on Ovariectomized Rats; type: in vivo; conditions: Rattus norvegicus, po, lowest active dose
Description: Ovariectomized rats were injected subcutaneously with a sesame oil solution containing 100 μg of estradiol undecylate in a volume of 0.1 ml per 100 g body weight and control animals were injected with sesame oil. On day one, two and three, test animals were treated once daily with a per os dose of the test compound and control animals with the drug vehicle (PEG 200). One day after the last treatment, the animals were sacrificed and their vaginas were processed for histological evaluation according to the method described in J. Pharmacol. Exp. Ther. 261(2), 773-779 (1992). A dose at which 50% of the tested rats show complete suppression of the estradiol undecylate induced keratinization effects is defined as an active dose.
In said table, the keratinization effect of the present compound number 3 is compared to the structurally closest art-known compounds, the latter being disclosed in EP-0,371,564.

[2] = system: retinoic acid (RA) metabolism; experiment: Inhibition of retinoic acid (RA) metabolism in MCF-7 human breast cancer cells; type: cell-based; conditions: MCF7, 3H-RA substrate, Table 1
Description: MCF-7 human breast cancer cells were grown as stock cultures according to art-known protocols. One day before the experiment, RA is added to the stock cultures to stimulate RA-metabolism. At the start of the experiment, cell suspensions were incubated in a tissue culture medium containing ^3 H-RA as the substrate. Different concentrations of the test compound (dissolved in 1% DMSO) were added to the incubation mixtures, and at the end of the incubation, the unmetabolized RA is separated from its polar metabolites. The fraction containing the polar ^3 H-labelled metabolites was collected and counted in a scintillation counter. For each experiment, a control and a blank incubation were run in parallel. The IC50 values listed in table 1 are the concentrations needed to reduce the amount of metabolites to 50% of the control.

[3] = 72 h, 50% of ovariectomized rats show complete suppression, per os once daily, 3 days, Table 1, read-out: Keratinization (LAD in mg/kg)
[4] = keratinization effect, per os, ovariectomized rats, comparison with EP-0,371,564 compounds, Table 2, read-out: LAD

IC50 [2]	SMILES	minimal effective dose [1, 3]	minimal effective dose [1, 4]
851 nM	O=c1ccc2cc(C(c3cccc(C(F)(F)F)c3)n3cncn3)ccc2[nH]1 (racemic) [Compound 3, (±)-6-[1H-1,2,4-triazol-1-yl[3-(trifluoromethyl)phenyl]methyl]-2(1H)-quinolinone]	2.5 mg/kg	2.5 mg/kg
154 nM	O=c1ccc2cc(C(c3cccc(C(F)(F)F)c3)n3cncn3)cc(F)c2[nH]1 (centres unmarked) [Compound 11]	10 mg/kg	
706 nM	Cc1cc(C(c2cccc(C(F)(F)F)c2)n2cncn2)cc2ccc(=O)[nH]c12 (centres unmarked) [Compound 9]	10 mg/kg	
	FC(F)(F)c1cccc(C(c2ccc3ncccc3c2)n2cncn2)c1 (centres unmarked) [Compound 66-a, reference compound]		10 mg/kg
1470 nM	Nn1c(=O)ccc2cc(C(c3cccc(C(F)(F)F)c3)n3cncn3)ccc21 (racemic) [Compound 20, (±)-(1-amino-6-[1H-1,2,4-triazol-1-yl-[3-(trifluoromethyl)phenyl]methyl]-2(1H)-quinolinone]	5 mg/kg	
850 nM	O=c1ccc2cc([C@H](c3cccc(C(F)(F)F)c3)n3cncn3)ccc2[nH]1 [Compound 1, (-)-(R)-6-[1H-1,2,4-triazol-1-yl[3-(trifluoromethyl)phenyl]methyl]-2(1H)-quinolinone]	1.25 mg/kg	
3850 nM	O=c1ccc2cc([C@@H](c3cccc(C(F)(F)F)c3)n3cncn3)ccc2[nH]1 [Compound 2]	> 40 mg/kg	
764 nM	O=c1ccc2c(Cl)c(C(c3cccc(C(F)(F)F)c3)n3cncn3)ccc2[nH]1 (centres unmarked) [Compound 10]	10 mg/kg	
4370 nM	Cn1c(=S)ccc2cc(C(c3cccc(C(F)(F)F)c3)n3cncn3)ccc21 (racemic) [Compound 21, (±)-1-methyl-6-[1H-1,2,4-triazol-1-yl[3-(trifluoromethyl]phenyl]methyl]-2(1H)-quinolinethione]	5 mg/kg	
> 10000 nM	O=c1ccc2cc(C(F)(c3cccc(C(F)(F)F)c3)n3cncn3)ccc2[nH]1 (centres unmarked) [Compound 5]	5 mg/kg	
18.2 nM	CCC(c1cccc(C(F)(F)F)c1)(c1ccc2[nH]c(=O)ccc2c1)n1cncn1 (centres unmarked) [Compound 6]	10 mg/kg	
	O=c1ccc2cc(C(c3cccc(F)c3)n3ccnc3)ccc2[nH]1 (centres unmarked) [Compound 11-a, reference compound]		40 mg/kg
510 nM	CC(c1cccc(C(F)(F)F)c1)(c1ccc2[nH]c(=O)ccc2c1)n1cncn1 (centres unmarked) [Compound 4]	5 mg/kg	
8590 nM	Cn1c(=O)ccc2cc(C(c3cccc(C(F)(F)F)c3)n3cncn3)ccc21 (racemic) [Compound 12, (±)-1methyl-6-[1H-1,2,4-triazol-1-yl[3-(trifluoromethyl)phenyl]methyl]-2(1H)-quinolinone]	2.5 mg/kg	
3.25 nM	Cn1c(=O)ccc2cc(C(C)(c3cccc(C(F)(F)F)c3)n3cncn3)ccc21 (centres unmarked) [Compound 14]	5 mg/kg	
10.2 nM	Cn1c(=O)ccc2cc(C(F)(c3cccc(C(F)(F)F)c3)n3cncn3)ccc21 (centres unmarked) [Compound 13]		
270 nM	CC(C)C(c1cccc(C(F)(F)F)c1)(c1ccc2[nH]c(=O)ccc2c1)n1cncn1 (centres unmarked) [Compound 7]	> 20 mg/kg	
